The subject of series [1] is Patients with Primary or Recurrent Pterygium. The experiment in a line: Phase 2a clinical trial in pterygium patients: ocular symptom and PSLQ questionnaire scores. The format is in vivo, human. The text has this:
2-HP-β-CD Formulation I was used as vehicle.
A trend of effects also remained after the stop of treatment at weeks 8, 16, and 24. The other questions didn't generate statistically significant effects.
These ocular symptoms are often observed in MGD patients. Scores of these symptoms were graded by patients as part of PSLQ questionnaires.

For series [2] the following is noted: Aqueous solution at 37° C.; concentration of CDs 1.0 × 10^−2M; cited from earlier work.

“2-Hydroxypropyl-beta-cyclodextrin [Formulation 2-HP-β-CD]”: the “PSLQ Overall Average Score, Baseline Mean (SD)” value in series [1] (Baseline, Modified Intent-to-Treat Population, N = 23) is reported as 0.70 (0.66). Moreover, the “PSLQ Average Ocular Symptom Score, Baseline Mean (SD)” value in series [1] (Baseline, mITT, N = 23) is reported as 0.88 (0.81). Further, the “PSLQ Average Quality of Life Impact Score, Baseline Mean (SD)” value in series [1] (Baseline, mITT, N = 23) is reported as 0.57 (0.92). Also, in series [1] (Baseline, mITT, N = 23), the “PSLQ Average Vision-Related Functioning Score, Baseline Mean (SD)” value was 0.57 (0.80). Moreover, the “PSLQ Average Vision-Related Functioning Score, Change from Baseline Mean (SD)” value in series [1] (Week 2, mITT, N = 23) is recorded as −0.27 (0.65); in series [1] (Week 4, mITT, N = 23), −0.48 (0.65); in series [1] (Week 8, mITT, N = 23) it was −0.43 (0.62); in series [1] (Week 16, mITT, N = 23), −0.23 (0.56); in series [1] (Week 24, mITT, N = 23), −0.11 (1.1). In series [1] (human, in vivo), the “PSLQ scores compared to the baseline (in words)” value is listed as “significant improvements”.

In the case of `OC[C@H]1O[C@@H]2O[C@H]3[C@H](O)[C@@H](O)[C@@H](O[C@H]4[C@H](O)[C@@H](O)[C@@H](O[C@H]5[C@H](O)[C@@H](O)[C@@H](O[C@H]6[C@H](O)[C@@H](O)[C@@H](O[C@H]7[C@H](O)[C@@H](O)[C@@H](O[C@H]1[C@H](O)[C@H]2O)O[C@@H]7CO)O[C@@H]6CO)O[C@@H]5CO)O[C@@H]4CO)O[C@@H]3CO` [Alpha-CD, alpha-cyclodextrin], the “Increase in Absorbance (600 nm) Due to Cholesterol Dissolved by CDs” value (from here on “Increase in Absorbance (600 nm) Due”) in series [2] is “zero”.

For the compound `COCC1O[C@@H]2O[C@@H]3C(COC)O[C@H](O[C@@H]4C(COC)O[C@H](O[C@@H]5C(COC)O[C@H](O[C@@H]6C(COC)O[C@H](O[C@@H]7C(COC)O[C@H](O[C@@H]8C(COC)O[C@H](O[C@H]1C(O)C2OC)C(OC)C8O)C(OC)C7O)C(OC)C6O)C(OC)C5O)C(OC)C4O)C(OC)C3O` (stereo partly drawn) [DOM-beta-CD, 2,6-Di-O-methyl-beta-cyclodextrin], the “Increase in Absorbance (600 nm) Due” value in series [2] is recorded as “a remarkable increase in absorbance”.

As for `OC[C@H]1O[C@@H]2O[C@H]3[C@H](O)[C@@H](O)[C@@H](O[C@H]4[C@H](O)[C@@H](O)[C@@H](O[C@H]5[C@H](O)[C@@H](O)[C@@H](O[C@H]6[C@H](O)[C@@H](O)[C@@H](O[C@H]7[C@H](O)[C@@H](O)[C@@H](O[C@H]8[C@H](O)[C@@H](O)[C@@H](O[C@H]9[C@H](O)[C@@H](O)[C@@H](O[C@H]1[C@H](O)[C@H]2O)O[C@@H]9CO)O[C@@H]8CO)O[C@@H]7CO)O[C@@H]6CO)O[C@@H]5CO)O[C@@H]4CO)O[C@@H]3CO` [Gamma-CD, gamma-cyclodextrin], the “Increase in Absorbance (600 nm) Due” value in series [2] is “zero”.

For `COC(=O)c1ccc2c(c1)NC(=O)/C2=C(\Nc1ccc(N(C)C(=O)CN2CCN(C)CC2)cc1)c1ccccc1` [Nintedanib 0.2%, nintedanib, reference compound], the “PSLQ scores, Nintedanib 0.2% vs Vehicle (in words)” value in series [1] (pterygium patients with dry eye condition) is recorded as “no statistically significant differences”.

These data come from US11166977B2, “Compositions for treating meibomian gland dysfunction” (ADS THERAPEUTICS LLC, priority 2019, dated 2021).
